Source: article PMC5218480 (PLoS ONE, 2017)

Test system: MV-4-11 cells
Assay: Gene expression microarray analysis (Affymetrix PrimeView) and GSEA
Format: cell-based, human
Set-up: RFU PODN (11730768_x_at) / Fold change /veh PODN (11730768_x_at) / RFU LINC00158 (11744669_a_at) / Fold change /veh LINC00158 (11744669_a_at) / RFU DUSP10 (11751237_a_at) / Fold change /veh DUSP10 (11751237_a_at) / RFU ID3 (11757404_x_at) / Fold change /veh ID3 (11757404_x_at) / RFU PLEKHG5 (11737974_s_at) / Fold change /veh PLEKHG5 (11737974_s_at) / RFU LRRC4B (11730491_at) / Fold change /veh LRRC4B (11730491_at) / RFU GIMAP4 (11747438_a_at) / Fold change /veh GIMAP4 (11747438_a_at) / RFU KRT8 (11758183_x_at) / Fold change /veh KRT8 (11758183_x_at) / RFU CNN1 (11734310_a_at) / Fold change /veh CNN1 (11734310_a_at) / RFU VPS37D (11726825_at) / Fold change /veh VPS37D (11726825_at) / RFU C10orf10 (11716522_x_at) / Fold change /veh C10orf10 (11716522_x_at) / RFU KIR2DL2 /// KIR2DL4 /// KIR2DL5A /// KIR2DL5B /// KIR2DS1 /// KIR2DS2 /// KIR2DS3 /// KIR2DS4 /// KIR3DL3 /// KIR3DL3 /// KIR3DS1 (11738374_at) / Fold change /veh KIR2DL2 /// KIR2DL4 /// KIR2DL5A /// KIR2DL5B /// KIR2DS1 /// KIR2DS2 /// KIR2DS3 /// KIR2DS4 /// KIR3DL3 /// KIR3DL3 /// KIR3DS1 (11738374_at) / RFU C1QL1 (11718748_at) / Fold change /veh C1QL1 (11718748_at) / RFU TMPRSS4 (11747572_a_at) / Fold change /veh TMPRSS4 (11747572_a_at) / RFU HAMP (11756126_x_at) / Fold change /veh HAMP (11756126_x_at) / RFU RNFT2 (11725882_a_at) / Fold change /veh RNFT2 (11725882_a_at) / RFU NR4A2 (11747474_a_at) / Fold change /veh NR4A2 (11747474_a_at) / RFU ABCC12 (11746883_a_at) / Fold change /veh ABCC12 (11746883_a_at) / RFU TMEM136 (11760407_x_at) / Fold change /veh TMEM136 (11760407_x_at) / RFU CLDN22 /// WWC2 (11732394_at) / Fold change /veh CLDN22 /// WWC2 (11732394_at) / RFU HLA-DPB1 (11760878_x_at) / Fold change /veh HLA-DPB1 (11760878_x_at) / RFU SPINT1 (11716480_a_at) / Fold change /veh SPINT1 (11716480_a_at) / RFU GAP43 (11754022_s_at) / Fold change /veh GAP43 (11754022_s_at) / RFU A4GNT (11735810_at) / Fold change /veh A4GNT (11735810_at) / RFU PRB3 (11715151_x_at) / Fold change /veh PRB3 (11715151_x_at) / RFU TUBB4B (11761932_at) / Fold change /veh TUBB4B (11761932_at) / RFU CAPN14 (11732068_a_at) / Fold change /veh CAPN14 (11732068_a_at) / RFU TMCC2 (11721928_a_at) / Fold change /veh TMCC2 (11721928_a_at) / RFU IRGQ (11745062_a_at) / Fold change /veh IRGQ (11745062_a_at) / RFU FAM174B (11720279_a_at) / Fold change /veh FAM174B (11720279_a_at) / RFU TMPRSS4 (11748680_a_at) / Fold change /veh TMPRSS4 (11748680_a_at) / RFU FAM212B (11763350_a_at) / Fold change /veh FAM212B (11763350_a_at) / RFU PLEKHG5 (11743358_a_at) / Fold change /veh PLEKHG5 (11743358_a_at) / RFU ZSCAN30 (11745921_a_at) / Fold change /veh ZSCAN30 (11745921_a_at) / RFU CMKLR1 (11741424_a_at) / Fold change /veh CMKLR1 (11741424_a_at) / RFU LOC101060620 /// MAPK8IP1 (11723275_at) / Fold change /veh LOC101060620 /// MAPK8IP1 (11723275_at) / RFU SPTSSB (11747773_x_at) / Fold change /veh SPTSSB (11747773_x_at) / RFU PRSS12 (11739890_at) / Fold change /veh PRSS12 (11739890_at) / RFU BIN1 (11741810_x_at) / Fold change /veh BIN1 (11741810_x_at) / RFU WNT11 (11732464_a_at) / Fold change /veh WNT11 (11732464_a_at) / RFU C10orf10 (11716521_a_at) / Fold change /veh C10orf10 (11716521_a_at) / RFU C5orf56 (11738089_at) / Fold change /veh C5orf56 (11738089_at) / RFU CYB561 (11721691_x_at) / Fold change /veh CYB561 (11721691_x_at) / RFU ANKRD19P (11752326_a_at) / Fold change /veh ANKRD19P (11752326_a_at) / RFU OR2T12 /// OR2T33 /// OR2T8 (11738714_s_at) / Fold change /veh OR2T12 /// OR2T33 /// OR2T8 (11738714_s_at) / RFU VCAN (11748164_a_at) / Fold change /veh VCAN (11748164_a_at) / RFU JSRP1 (11732532_at) / Fold change /veh JSRP1 (11732532_at) / RFU KRTAP10-11 (11738290_x_at) / Fold change /veh KRTAP10-11 (11738290_x_at) / RFU MYO3A (11730013_a_at) / Fold change /veh MYO3A (11730013_a_at) / RFU EBF3 (11725865_a_at) / Fold change /veh EBF3 (11725865_a_at) / RFU CAMK2N1 (11719241_x_at) / Fold change /veh CAMK2N1 (11719241_x_at) / RFU C5orf56 (11738088_a_at) / Fold change /veh C5orf56 (11738088_a_at) / RFU OLFML3 (11715873_a_at) / Fold change /veh OLFML3 (11715873_a_at) / RFU LOC100653217 /// NTM (11731650_a_at) / Fold change /veh LOC100653217 /// NTM (11731650_a_at) / RFU MAPK11 (11762145_a_at) / Fold change /veh MAPK11 (11762145_a_at) / RFU FIZ1 (11724087_x_at) / Fold change /veh FIZ1 (11724087_x_at) / RFU OASL (11726364_x_at) / Fold change /veh OASL (11726364_x_at) / RFU SOX15 (11748057_x_at) / Fold change /veh SOX15 (11748057_x_at) / RFU CD79A (11719716_a_at) / Fold change /veh CD79A (11719716_a_at) / RFU HIST1H1D (11736915_at) / Fold change /veh HIST1H1D (11736915_at) / RFU CASKIN2 (11723855_a_at) / Fold change /veh CASKIN2 (11723855_a_at) / RFU LOC730098 (11760151_x_at) / Fold change /veh LOC730098 (11760151_x_at) / RFU OR4N2 (11742367_at) / Fold change /veh OR4N2 (11742367_at) / RFU PRRT2 (11749266_a_at) / Fold change /veh PRRT2 (11749266_a_at) / RFU SNX32 (11753110_a_at) / Fold change /veh SNX32 (11753110_a_at) / RFU CDHR5 (11726645_a_at) / Fold change /veh CDHR5 (11726645_a_at) / RFU RCAN1 (11760418_a_at) / Fold change /veh RCAN1 (11760418_a_at) / RFU FAM167A (11723789_a_at) / Fold change /veh FAM167A (11723789_a_at) / RFU FAM26E (11764081_at) / Fold change /veh FAM26E (11764081_at) / RFU ISYNA1 (11749810_s_at) / Fold change /veh ISYNA1 (11749810_s_at) / RFU ACY1 (11761880_at) / Fold change /veh ACY1 (11761880_at) / RFU 11764098_at / Fold change /veh 11764098_at / RFU SAMD14 (11745864_x_at) / Fold change /veh SAMD14 (11745864_x_at) / RFU NPB (11741838_a_at) / Fold change /veh NPB (11741838_a_at) / RFU TMPRSS6 (11731388_a_at) / Fold change /veh TMPRSS6 (11731388_a_at) / RFU KRTAP10-2 (11738614_at) / Fold change /veh KRTAP10-2 (11738614_at) / RFU ARHGAP8 /// PRR5-ARHGAP8 (11727945_x_at) / Fold change /veh ARHGAP8 /// PRR5-ARHGAP8 (11727945_x_at) / RFU KRTAP5-7 /// NADSYN1 (11734609_at) / Fold change /veh KRTAP5-7 /// NADSYN1 (11734609_at) / RFU RASL12 (11751679_a_at) / Fold change /veh RASL12 (11751679_a_at) / RFU CDKN2B (11736163_a_at) / Fold change /veh CDKN2B (11736163_a_at) / RFU PRF1 (11729649_at) / Fold change /veh PRF1 (11729649_at) / RFU, ZNF638 /// ZNF638-IT1 / Fold change vs veh, ZNF638 /// ZNF638-IT1 / RFU, PANK3 / Fold change vs veh, PANK3 / RFU, SH3YL1 / Fold change vs veh, SH3YL1 / RFU, ZEB2 / Fold change vs veh, ZEB2 / RFU, NRIP1 / Fold change vs veh, NRIP1 / RFU, PTTG1IP / Fold change vs veh, PTTG1IP / RFU, CAPN2 / Fold change vs veh, CAPN2 / RFU, MED14 / Fold change vs veh, MED14 / RFU, SNORA58 / Fold change vs veh, SNORA58 / RFU, C1orf63 / Fold change vs veh, C1orf63 / RFU, LRRFIP1 / Fold change vs veh, LRRFIP1 / RFU, NDUFAF7 / Fold change vs veh, NDUFAF7 / RFU, SLC12A2 / Fold change vs veh, SLC12A2 / RFU, IBTK / Fold change vs veh, IBTK / RFU, ESF1 / Fold change vs veh, ESF1 / Fold change vs veh, TMEM50B / RFU, TAOK1 / Fold change vs veh, TAOK1 / RFU, ACBD3 / Fold change vs veh, ACBD3 / RFU, TMA16 / Fold change vs veh, TMA16 / RFU, RWDD3 / Fold change vs veh, RWDD3 / RFU, BCAT1 / Fold change vs veh, BCAT1 / RFU, EDEM3 / Fold change vs veh, EDEM3 / RFU, TMEM33 / Fold change vs veh, TMEM33 / RFU, WDR75 / Fold change vs veh, WDR75 / RFU, AHCTF1 / Fold change vs veh, AHCTF1 / RFU, TFRC / Fold change vs veh, TFRC / RFU, ZDHHC17 / Fold change vs veh, ZDHHC17 / RFU, NOM1 / Fold change vs veh, NOM1 / RFU, ARL8B / Fold change vs veh, ARL8B / RFU, ZBTB11 / Fold change vs veh, ZBTB11 / RFU, TAMM41 / Fold change vs veh, TAMM41 / RFU, KIAA1704 /// LOC100996395 / Fold change vs veh, KIAA1704 /// LOC100996395 / RFU, ING1 / Fold change vs veh, ING1 / RFU, TRMT61B / Fold change vs veh, TRMT61B / RFU, FUBP3 / Fold change vs veh, FUBP3 / RFU, TP53 / Fold change vs veh, TP53 / RFU, TNKS2 / Fold change vs veh, TNKS2 / RFU, ZFP14 / Fold change vs veh, ZFP14 / RFU, ACTR2 / Fold change vs veh, ACTR2 / RFU, PPP3R1 / Fold change vs veh, PPP3R1 / RFU, PIK3R1 / Fold change vs veh, PIK3R1 / RFU, HNRNPA1 / Fold change vs veh, HNRNPA1 / RFU, RNF170 / Fold change vs veh, RNF170 / RFU, ZNF28 / Fold change vs veh, ZNF28 / RFU, RNGTT / Fold change vs veh, RNGTT / RFU, OGT / Fold change vs veh, OGT / RFU, BRD1 / Fold change vs veh, BRD1 / RFU, MARS / Fold change vs veh, MARS / RFU, ZNF655 / Fold change vs veh, ZNF655 / RFU, FAHD1 / Fold change vs veh, FAHD1 / RFU, BDP1 / Fold change vs veh, BDP1 / RFU, LRRCC1 / Fold change vs veh, LRRCC1 / RFU, ARID1A / Fold change vs veh, ARID1A / RFU, ZNF146 / Fold change vs veh, ZNF146 / RFU, ZNF330 / Fold change vs veh, ZNF330 / RFU, GPN3 / Fold change vs veh, GPN3 / RFU, C9orf123 / Fold change vs veh, C9orf123 / RFU, N4BP2L2 / Fold change vs veh, N4BP2L2 / RFU, ARFIP1 / Fold change vs veh, ARFIP1 / RFU, FAM179B / Fold change vs veh, FAM179B / RFU, BCL10 / Fold change vs veh, BCL10 / RFU, UHRF1BP1L / Fold change vs veh, UHRF1BP1L / RFU, BET1 / Fold change vs veh, BET1 / RFU, CNOT2 / Fold change vs veh, CNOT2 / RFU, ZNF268 / Fold change vs veh, ZNF268 / Fold change vs veh, ZNF507 / RFU, DGCR2 / Fold change vs veh, DGCR2 / RFU, WDSUB1 / Fold change vs veh, WDSUB1 / Fold change vs veh, HSP90B1 /// MIR3652 / RFU, ADSS / Fold change vs veh, ADSS / RFU, GK / Fold change vs veh, GK / RFU, ZNF148 / Fold change vs veh, ZNF148 / RFU, TAF9 / Fold change vs veh, TAF9 / RFU, SLC1A5 / Fold change vs veh, SLC1A5 / RFU, SLMO2 / Fold change vs veh, SLMO2 / RFU, ABCC4 / Fold change vs veh, ABCC4 / RFU, LOC101060439 /// RAP1B / Fold change vs veh, LOC101060439 /// RAP1B / RFU, RFX7 / Fold change vs veh, RFX7 / RFU, GTPBP10 / Fold change vs veh, GTPBP10 / RFU, CNEP1R1 / Fold change vs veh, CNEP1R1 / RFU, BIVM-ERCC5 /// ERCC5 / Fold change vs veh, BIVM-ERCC5 /// ERCC5 / RFU, ILF3 / Fold change vs veh, ILF3 / RFU 11762660_at / Fold change /veh 11762660_at / RFU VCAN (11757783_s_at) / Fold change /veh VCAN (11757783_s_at) / RFU DDX43 (11728927_at) / Fold change /veh DDX43 (11728927_at) / RFU KRT8 (11758188_x_at) / Fold change /veh KRT8 (11758188_x_at) / RFU NKD1 (11759106_at) / Fold change /veh NKD1 (11759106_at) / RFU SRD5A1 (11742802_a_at) / Fold change /veh SRD5A1 (11742802_a_at) / RFU TPSAB1 /// TPSB2 (11721975_s_at) / Fold change /veh TPSAB1 /// TPSB2 (11721975_s_at) / RFU GSTM3 (11746129_a_at) / Fold change /veh GSTM3 (11746129_a_at) / RFU IL23R (11737362_x_at) / Fold change /veh IL23R (11737362_x_at) / RFU TMEM51 (11727254_a_at) / Fold change /veh TMEM51 (11727254_a_at) / RFU PIWIL2 (11732686_x_at) / Fold change /veh PIWIL2 (11732686_x_at) / RFU ORM1 (11744905_x_at) / Fold change /veh ORM1 (11744905_x_at) / RFU CCDC152 (11743942_at) / Fold change /veh CCDC152 (11743942_at) / RFU ECM1 (11717891_a_at) / Fold change /veh ECM1 (11717891_a_at) / RFU IL23R (11748794_a_at) / Fold change /veh IL23R (11748794_a_at) / RFU TNFAIP8L3 (11732012_x_at) / Fold change /veh TNFAIP8L3 (11732012_x_at) / RFU MBOAT4 (11741988_at) / Fold change /veh MBOAT4 (11741988_at) / RFU 11764193_at / Fold change /veh 11764193_at / RFU TMEM53 (11763286_at) / Fold change /veh TMEM53 (11763286_at) / RFU MAGEB2 (11727129_at) / Fold change /veh MAGEB2 (11727129_at) / RFU TMEM200A (11744735_a_at) / Fold change /veh TMEM200A (11744735_a_at) / RFU CCDC152 (11751479_a_at) / Fold change /veh CCDC152 (11751479_a_at) / RFU FAM211A (11726209_a_at) / Fold change /veh FAM211A (11726209_a_at) / RFU RGS16 (11746705_a_at) / Fold change /veh RGS16 (11746705_a_at) / RFU VCAN (11755009_s_at) / Fold change /veh VCAN (11755009_s_at) / RFU RHOB (11743442_s_at) / Fold change /veh RHOB (11743442_s_at) / RFU RGS16 (11720943_a_at) / Fold change /veh RGS16 (11720943_a_at) / RFU RGS16 (11720944_at) / Fold change /veh RGS16 (11720944_at) / RFU, VPS4B / Fold change vs veh, VPS4B / RFU, CREB1 / Fold change vs veh, CREB1 / RFU, DNAJC13 / Fold change vs veh, DNAJC13 / RFU, GNAQ / Fold change vs veh, GNAQ / RFU, CDK5R1 / Fold change vs veh, CDK5R1 / RFU, ZRANB3 / Fold change vs veh, ZRANB3 / RFU, CUL4A / Fold change vs veh, CUL4A / RFU, CCNY / Fold change vs veh, CCNY / RFU, UFL1 / Fold change vs veh, UFL1 / RFU, COG3 / Fold change vs veh, COG3 / RFU, DIAPH2 / Fold change vs veh, DIAPH2 / RFU, SKA2 / Fold change vs veh, SKA2 / RFU, AFF3 / Fold change vs veh, AFF3 / RFU, LMF1 / Fold change vs veh, LMF1 / RFU, IPO11 / Fold change vs veh, IPO11 / RFU, DFFB / Fold change vs veh, DFFB / RFU, FOXP1 / Fold change vs veh, FOXP1 / RFU, CARD8 / Fold change vs veh, CARD8 / RFU, STRN3 / Fold change vs veh, STRN3 / RFU, ADK / Fold change vs veh, ADK / RFU, RASSF2 / Fold change vs veh, RASSF2 / RFU, WIPF1 / Fold change vs veh, WIPF1 / RFU, LARP1B / Fold change vs veh, LARP1B / RFU, RASA1 / Fold change vs veh, RASA1 / RFU, RB1 / Fold change vs veh, RB1 / RFU, PPFIA1 / Fold change vs veh, PPFIA1 / RFU, MAT2A / Fold change vs veh, MAT2A / RFU, CCT5 / Fold change vs veh, CCT5 / RFU, WDR92 / Fold change vs veh, WDR92 / RFU, CUX1 / Fold change vs veh, CUX1 / RFU, TTC7A / Fold change vs veh, TTC7A / RFU, TMEM135 / Fold change vs veh, TMEM135 / RFU, DEPTOR / Fold change vs veh, DEPTOR / RFU, CPM / Fold change vs veh, CPM / RFU, DNAJB6 / Fold change vs veh, DNAJB6 / RFU, CACNA2D3 / Fold change vs veh, CACNA2D3 / RFU, DTX4 / Fold change vs veh, DTX4 / RFU, TFCP2 / Fold change vs veh, TFCP2 / RFU, GMCL1 /// GMCL1P1 / Fold change vs veh, GMCL1 /// GMCL1P1 / RFU, AEBP2 / Fold change vs veh, AEBP2 / RFU, SNHG1 /// SNORD22 /// SNORD25 /// SNORD26 /// SNORD27 /// SNORD28 /// SNORD29 /// SNORD31 / Fold change vs veh, SNHG1 /// SNORD22 /// SNORD25 /// SNORD26 /// SNORD27 /// SNORD28 /// SNORD29 /// SNORD31 / Fold change (Aza/veh), C12orf56 (ProbeSet 11735607_a_at) / Fold change (ACY-1035/veh), C12orf56 (ProbeSet 11735607_a_at) / Fold change (Aza/veh), FGFR1OP (ProbeSet 11751329_s_at) / Fold change (ACY-1035/veh), FGFR1OP (ProbeSet 11751329_s_at) / Fold change (Aza/veh), VPS36 (ProbeSet 11739960_a_at) / Fold change (ACY-1035/veh), VPS36 (ProbeSet 11739960_a_at) / RFU SYPL1 (11715823_x_at) / Fold change /veh SYPL1 (11715823_x_at) / RFU IGFBP7 (11715501_s_at) / Fold change /veh IGFBP7 (11715501_s_at) / RFU REEP3 (11722064_at) / Fold change /veh REEP3 (11722064_at) / RFU IGLL1 (11728026_x_at) / Fold change /veh IGLL1 (11728026_x_at): dose or concentration left out as unconfirmed
Details: MV-4-11 cells, 48 hours

Nc1ncn([C@@H]2O[C@H](CO)[C@@H](O)[C@H]2O)c(=O)n1 [azacitidine]
RFU TMEM136 (11760407_x_at): 16.07 RFU
